Source: article PMC10384639, “Increased In Vivo Exposure of N-(4-Hydroxyphenyl) Retinamide (4-HPR) to Achieve Plasma Concentrations Effective against Dengue Virus” (Pharmaceutics, 2023)
Values joined by “and” are separate entries in the source; they are usually repeats but may differ in a detail not shown here. Equal values may be shown once. Read-outs that look alike come from different tables or passages of the source.

Experiments:
[1] = Plasma protein binding by Rapid Equilibrium Dialysis; format: in vitro ADME; details: 37 °C, corrected for dilution; for % Bound / Fraction Unbound 4-HPR: RED 24 h; for fraction unbound at 24 h, 2000 ng/mL: pH 7.4, RED 24 h, read-out: % Bound
Method: (§1) Protein binding of 4-HPR was assessed in human (pooled, Innovative Research Inc., Novi, MI, USA) and mouse (collected in-house from male C57BL6 mice) plasma via Rapid Equilibrium Dialysis (RED) using pre-saturated dialysis units as previously. Briefly, RED inserts were pre-saturated overnight with 400 ng/mL 4-HPR in PBS, after which solutions were removed and discarded, and 300 µL aliquots of diluted human or mouse plasma (10% v/v in pH 7.4 PBS) containing 4-HPR (2000 ng/mL) were added to the donor chamber of the RED inserts (n = 4/matrix) and dialysed against 500 µL of PBS (containing 40 ng/mL 4-HPR). During the 24 h dialysis period, the RED system was sealed with a gas impermeable film, and the plate was maintained at 37 °C under ambient atmosphere in an orbital plate shaker set at 800 rpm (ThermoMixer C; Eppendorf, Hamburg, Germany). At the end of the dialysis period, aliquots were taken from each donor and dialysate chamber to obtain post-dialysis measures of the total and unbound 4-HPR concentrations, respectively. The measured pH of pre- and post-dialysis donor matrix and dialysate buffer was within pH 7.4 ± 0.1.
Donor and dialysate samples were processed and analysed using a matrix matching approach, and all samples were stored frozen at −80 °C until analysis by LC-MS. Compound binding was assessed on the basis of the measured concentrations in dialysate and donor samples at the end of the dialysis period, assuming that the system was at steady state by 24 h. As the binding assay was performed using diluted plasma, data were corrected for the dilution factor to give a binding value for neat plasma via an established approach which accounts for the shift in equilibria that occurs with protein dilution.

[2] = Single-dose IV PK of 4-HPR in mice with and without ABT; format: in vivo, male C57Bl/6 mice; details: for half-life / AUC(0-inf) / clearance / Vd: plasma; for half-life: read-out: Apparent t1/2 (converted); for AUC(0-inf): read-out: Plasma AUC0-inf; for Vd: read-out: Plasma VSS
Method: C57Bl/6 mice (22.6–28.7 g) having access to food and water ad libitum throughout the pre- and post-dose sampling period were dosed with 4-HPR either orally by gavage (2–10 mL/kg, depending upon formulation) or IV by bolus injection into the lateral tail vein (50 μL/animal, 2 mL/kg), and blood samples were collected up to 49 h post-dose by either submandibular bleed or terminal cardiac puncture (n = 3–5 mice per timepoint for each formulation) with a maximum of four samples from each mouse. Blood samples were mixed with heparin, potassium fluoride and complete protease inhibitor cocktail (Roche Diagnostics, Mannheim, Germany), centrifuged and supernatant plasma was removed and stored at −80 °C until analysis by LC-MS. Specifics of formulations used in PK experiments are detailed in Supplementary Table S1.
For in vivo CYP inhibition experiments, repeat oral doses of ABT (50 mg/kg b.i.d commencing 4 h before 4-HPR administration, 5 mL/kg by gavage) were administered according to a regimen shown to maintain ongoing CYP inhibition. Blood samples were collected from ABT-treated mice for up to 72 h after dosing 4-HPR.
For 4-HPR quantification, proteins were precipitated from plasma samples using acetonitrile (2-fold volume ratio) prior to analysis using a Waters Acquity Ultra-High Performance Liquid Chromatography (UHPLC) system coupled to a Waters Xevo TQ MS system (Waters Corporation, Milford, MA, USA). Chromatographic separation was performed using a C8 reverse phase column (Ascentis Express RP C8, 50 × 2.1 mm, 2.7 μm, Merck KGaA, Darmstadt, Germany) and a 3 μL injection volume. Gradient elution (methanol-water gradient with 0.05% formic acid) was performed at a flow rate of 0.4 mL/min, cycle time of 4 min, with detection by positive electrospray ionisation in multiple-reaction monitoring mode. Then, 4-HPR standards (10,000–0.5 ng/mL) were prepared in blank plasma, with diazepam as an internal standard (10 μL of 5 μg/mL in 50% acetonitrile/water per sample). For 4-HPR, the retention time was 2.97 min, m/z transition 392.23 > 161.15, cone voltage 30 V and CID 20 V.
The dose administered to each mouse was calculated on the basis of the pre-dose body weight, the volume of formulation administered, and the 4-HPR concentration in the formulation. The plasma concentration versus time profile was defined by the average plasma concentration at each sample time, and PK parameters were calculated using non-compartmental methods (PKSolver Version 2.0) using the average dose administered to the dosing group.
To illustrate the differences in 4-HPR plasma exposure profiles that would be expected in mice upon repeat-dose administration (b.i.d, 10 h/14 h at 20 mg/kg) of the different formulations, profiles were simulated using a simple compartmental PK approach. Initially, a linear 2-compartment model was fitted (PKSolver, Version 2.0) to the mean plasma concentration-time profile obtained after bolus IV administration of 4-HPR. The parameter estimates thus obtained (i.e., V1, k10, k12 and k21—see Supplementary Table S2) were considered to define the systemic disposition of 4-HPR and were fixed during simulation of the oral profiles. Oral profiles were simulated using a differential equation-based compartmental model scripted in Berkeley Madonna (version 8.3.1.8). Systemic disposition parameters were fixed as described above, under the assumption that the post-absorption distribution and elimination of 4-HPR was independent of the formulation administered. Bioavailability was fixed at the value determined by non-compartmental analysis, and the first order rate constant for compound absorption was manually varied until the simulated concentration-time profile was in close agreement with the experimental concentration-time data obtained after single-dose administration of pre-dispersed lipid formulation. […] These were obtained by setting the bioavailability (F) to the value determined for each formulation by non-compartmental analysis.

[3] = Stability in diluted plasma matrix; format: in vitro ADME; details: diluted mouse plasma (10% v/v in pH 7.4 PBS)
[4] = Equilibrium solubility of 4-HPR in excipients and lipid-based formulations; format: physicochemical
Method: Excipients were weighed directly into glass vials at the indicated concentrations, mixed thoroughly, then transferred to Eppendorf tubes and loaded with an excess of 4-HPR. Formulations were then heated to 37 °C, vortexed extensively (initially every hour) and agitated with a stirrer and incubated at 37 °C in a shaking incubator. Periodically (every 1–3 days), undissolved drug was removed from the formulation by centrifugation (20 min at 2100× g, 37 °C) and 20 mg of supernatant was transferred to new tubes for quantification by UHPLC (stored at −20 °C), with the remaining formulation vortexed and agitated vigorously incubated at 37 °C in a shaking incubator until the next sampling. Samples were dissolved in 1 mL 1:1 chloroform:methanol, then diluted 1:100 in acetonitrile.
In this case, the UHPLC assay used a Shimadzu Nexera X2 UHPLC system (Shimadzu Corporation, Kyoto, Japan), with chromatographic separation on a C18 reverse phase column (Kinetex 2.6 μm C18 100 Å, LC Column 50 × 2.1 mm, Phenomenex Inc., Torrance, CA, USA) at 30 °C, with samples stored at 10 °C in the autosampler until injection (3 μL volume). Isocratic elution (79.95% acetonitrile, 19.95% H2O, 0.1% formic acid) was performed at a flow rate of 0.3 mL/min, with absorbance measured by the photodiode array detector. Then, 4-HPR standards (50–0.521 μg/mL) were created by successive serial dilution of a 50 μg/mL stock standard in acetonitrile, with area under curve at absorbance of 365 nm used to generate a standard curve using LabSolutions software V.5.82.

DENV2 = tested on: DENV2; parameters: method as in PMID 25313218; details: b.i.d 180 mg/kg, AG129 mouse viremia model; cited from earlier work
ZIKV = tested on: ZIKV; parameters: method as in PMID 33439253; details: read-out: In vitro EC50; cited from earlier work
[5] = Stability in diluted plasma matrix; format: in vitro ADME; details: diluted human plasma (10% v/v in pH 7.4 PBS)
Method: as §1

DENV [6] = details: cited from earlier work
DENV [7] = tested on: DENV; parameters: method as in PMID 24903662; details: b.i.d 20 mg/kg 4-HPR, lethal ADE DENV infection; cited from earlier work
[8] = male, C57Bl/6, mouse, in vivo, iv
[9] = male, C57Bl/6, mouse, iv, 2 mg/kg, single-dose 2 mg/kg IV, +ABT (50 mg/kg, b.i.d)
[10] = male, C57Bl/6, mouse, iv, 2 mg/kg, single-dose 2 mg/kg IV, −ABT

CC1=C(/C=C/C(C)=C/C=C/C(C)=C/C(=O)Nc2ccc(O)cc2)C(C)(C)CCC1 [4-HPR, N-(4-hydroxyphenyl) retinamide]
% Bound ([1]; human plasma): > 99.95%
Fraction Unbound 4-HPR ([1]; human plasma): < 0.0005
fraction unbound at 24 h, 2000 ng/mL ([1]; male, C57BL6, mouse plasma diluted to 10% v/v in PBS): < 0.0005
% Bound ([1]; mouse plasma): > 99.95%
Fraction Unbound 4-HPR ([1]; mouse plasma): < 0.0005
fraction unbound at 24 h, 2000 ng/mL ([1]; pooled human plasma diluted to 10% v/v in PBS): < 0.0005
Fold increase in exposure with ABT treatment after IV dosage ([2]; IV 2 mg/kg, +ABT versus −ABT): 0.2 fold
V1 (2-compartment model estimate) ([2]; fit to IV data, −ABT): 0.233 L/kg
k21 (2-compartment model estimate) ([2]; fit to IV data, −ABT): 0.561 h⁻¹
k10 (2-compartment model estimate) [2, 8]: 1.20 h⁻¹
k12 (2-compartment model estimate) [2, 8]: 5.42 h⁻¹
half-life [2, 9]: 12.1 h
AUC(0-inf) [2, 9]: 24.5 µM·h
clearance ([2]; male, C57Bl/6, mouse, iv, 2 mg/kg, single-dose 2 mg/kg IV, +ABT (50 mg/kg, b.i.d), read-out: Plasma CL): 3.6 mL/min/kg
Vd [2, 9]: 3.2 L/kg
half-life ([2]; male, C57Bl/6, mouse, iv, 2 mg/kg, single-dose 2 mg/kg IV, −ABT, 10% DMSO, 90% PEG400): 8.1 h
AUC(0-inf) [2, 10]: 21.6 µM·h
clearance ([2]; male, C57Bl/6, mouse, iv, 2 mg/kg, single-dose 2 mg/kg IV, −ABT, read-out: Plasma CL): 4.1 mL/min/kg
Vd [2, 10]: 1.9 L/kg
clearance ([2]; male, C57Bl/6, mouse, iv, observed under both conditions (±ABT), read-out: In vivo systemic clearance): 4.4 mL/min/kg
Stability in diluted plasma [3]: no evidence of any degradation
4-HPR Concentration (equilibrium solubility) ([4]; in Capmul-MCM-EP, 37 °C): 34 mg/g and 34 ± 4.3 mg/g
4-HPR Concentration (equilibrium solubility) ([4]; in Capryol 90, 37 °C): 48 ± 6.0 mg/g
4-HPR Concentration (equilibrium solubility) ([4]; in Captex 355 EP/NF, 37 °C): 14 ± 0.1 mg/g
4-HPR Concentration (equilibrium solubility) ([4]; in Corn oil, 37 °C): 3.9 ± 0.2 mg/g
4-HPR Concentration (equilibrium solubility) ([4]; in Cremophor EL, 37 °C): 10 ± 0.2 mg/g
4-HPR Concentration (equilibrium solubility) ([4]; in Ethanol, 37 °C): 113 mg/g and 113 ± 1.3 mg/g
4-HPR Concentration (equilibrium solubility) ([4]; in Gelucire 44/14, 37 °C): 6.0 ± 0.2 mg/g
4-HPR Concentration (equilibrium solubility) ([4]; in Kolliphor RH 40, 37 °C): 5.5 ± 0.6 mg/g
4-HPR Concentration (equilibrium solubility) ([4]; in Labrasol, 37 °C): 7.3 ± 0.1 mg/g
4-HPR Concentration (equilibrium solubility) ([4]; in Lauroglycol 90, 37 °C): 39 mg/g and 39 ± 1.4 mg/g
4-HPR Concentration (equilibrium solubility) ([4]; in Maisine 35-1, 37 °C): 21 ± 7.6 mg/g
4-HPR Concentration (equilibrium solubility) ([4]; in Maisine CC, 37 °C): 26 ± 1.6 mg/g
4-HPR Concentration (equilibrium solubility) ([4]; in PEG400, 37 °C): 82 ± 0.7 mg/g
4-HPR Concentration (equilibrium solubility) ([4]; in Polysorbate 80, 37 °C): 24 ± 4.9 mg/g
4-HPR Concentration (equilibrium solubility) ([4]; in Soybean Oil, 37 °C): 2.7 ± 0.1 mg/g
4-HPR Concentration (equilibrium solubility) ([4]; in Transcutol, 37 °C): 217 ± 8.8 mg/g
4-HPR Concentration (equilibrium solubility) ([4]; in Tween 85, 37 °C): 71 mg/g and 71 ± 9.1 mg/g
Reduction of DENV2 viremia (DENV2): > 50 fold
EC50 (ZIKV): 1000 to 2000 nM
Stability in diluted plasma [5]: no evidence of any degradation
EC50 (DENV [6]; DENV, read-out: In vitro EC50): 1000 to 2000 nM
EC50 (DENV [6]; all four infectious DENV strains in vitro, read-out: EC50): ~1000 nM
Protection of infected mice (DENV [7]): 70%
